# Reference: publication PMC10945556, “Design, Synthesis, and Antifungal Activity of 3-Substituted-2(5H)-Oxaboroles” (ACS Medicinal Chemistry Letters, 2024)
# What was measured:
# [1] = test system: T. mentagrophytes; assay: MIC, dose-dependent solid media assay; assay type: cell-based, Trichophyton mentagrophytes
# [2] = test system: P. aeruginosa; assay: MIC, microbroth dilution; assay type: cell-based, Pseudomonas aeruginosa
# [3] = test system: Methicillin resistant Staphylococcus aureus; assay: MIC, microbroth dilution; assay type: cell-based; conditions: S. aureus (MRSA)
# [4] = test system: A. flavus; assay: MIC, dose-dependent solid media assay; assay type: cell-based, Aspergillus flavus
# [5] = test system: P. chrysogenum; assay: MIC, dose-dependent solid media assay; assay type: cell-based, Penicillium chrysogenum
# [6] = test system: C. albicans; assay: MIC, microbroth dilution; assay type: cell-based, Candida albicans
# [7] = test system: S. cerevisiae; assay: MIC, microbroth dilution; assay type: cell-based, Saccharomyces cerevisiae
# [8] = test system: E. coli; assay: MIC, microbroth dilution; assay type: cell-based, Escherichia coli
# [9] = test system: B. cereus; assay: MIC, microbroth dilution; assay type: cell-based, Bacillus cereus
# [10] = Trichophyton mentagrophytes, value in parentheses
# [11] = Pseudomonas aeruginosa, value in parentheses
# [12] = Staphylococcus aureus, value in parentheses
# [13] = Aspergillus flavus, value in parentheses
# [14] = Penicillium chrysogenum, value in parentheses
# [15] = Candida albicans, value in parentheses
# [16] = Saccharomyces cerevisiae, value in parentheses
# [17] = Escherichia coli, value in parentheses
# [18] = Bacillus cereus, value in parentheses
Compound,MIC ([1]; Trichophyton mentagrophytes),"MIC [1, 10]",MIC ([2]; Pseudomonas aeruginosa),"MIC [2, 11]",MIC ([3]; Staphylococcus aureus),"MIC [3, 12]",MIC ([4]; Aspergillus flavus),"MIC [4, 13]",MIC ([5]; Penicillium chrysogenum),"MIC [5, 14]",MIC ([6]; Candida albicans),"MIC [6, 15]",MIC ([7]; Saccharomyces cerevisiae),"MIC [7, 16]","MIC [8, 17]",MIC ([9]; Bacillus cereus),"MIC [9, 18]",MIC ([8]; Escherichia coli),further results
Cc1cc(F)cc(C2=CCOB2O)c1 [Compound 6k],42 ± 8 µg/mL,219 µM,> 50 µg/mL,> 260 µM,> 50 µg/mL,> 260 µM,42 ± 8 µg/mL,219 µM,12.5 µg/mL,65.1 µM,> 50 µg/mL,> 260 µM,12.5 µg/mL,65.1 µM,> 260 µM,> 50 µg/mL,> 260 µM,,
OB1OCC=C1C1=CCCCC1 [Compound 6y],> 50 µg/mL,> 305 µM,> 50 µg/mL,> 305 µM,> 50 µg/mL,> 305 µM,> 50 µg/mL,> 305 µM,> 50 µg/mL,> 305 µM,> 50 µg/mL,> 305 µM,21 ± 4 µg/mL,128 µM,> 305 µM,> 50 µg/mL,> 305 µM,> 50 µg/mL,
COc1ccc(C2=CCOB2O)cc1 [Compound 6n],> 50 µg/mL,> 263 µM,> 50 µg/mL,> 263 µM,> 50 µg/mL,> 263 µM,> 50 µg/mL,> 263 µM,> 50 µg/mL,> 263 µM,> 50 µg/mL,> 263 µM,> 50 µg/mL,> 263 µM,> 263 µM,> 50 µg/mL,> 263 µM,> 50 µg/mL,
OB1OCC=C1c1cccc(Cl)c1 [Compound 6f],25 µg/mL,129 µM,> 50 µg/mL,> 258 µM,> 50 µg/mL,> 258 µM,25 µg/mL,129 µM,12.5 µg/mL,64.4 µM,> 50 µg/mL,> 258 µM,21 ± 4 µg/mL,108 µM,> 258 µM,> 50 µg/mL,> 258 µM,> 50 µg/mL,
OB1OCC=C1c1ccccc1Cl [Compound 6g],> 50 µg/mL,> 258 µM,> 50 µg/mL,> 258 µM,> 50 µg/mL,> 258 µM,> 50 µg/mL,> 258 µM,> 50 µg/mL,> 258 µM,> 50 µg/mL,> 258 µM,50 µg/mL,258 µM,> 258 µM,> 50 µg/mL,> 258 µM,> 50 µg/mL,
"OB1OCc2cc(F)ccc21 [Compound 1, tavaborole, reference compound]",0.78 µg/mL,5.14 µM,> 50 µg/mL,> 329 µM,~50 µg/mL,> 329 µM,0.78 µg/mL,5.14 µM,1 ± 0.3 µg/mL,6.58 µM,2.3 ± 0.8 µg/mL,15.1 µM,0.26 ± 0.06 µg/mL,1.71 µM,112 µM,> 50 µg/mL,> 329 µM,17 ± 4 µg/mL,
COc1ccccc1C1=CCOB1O [Compound 6p],> 50 µg/mL,> 263 µM,> 50 µg/mL,> 263 µM,> 50 µg/mL,> 263 µM,> 50 µg/mL,> 263 µM,> 50 µg/mL,> 263 µM,> 50 µg/mL,> 263 µM,> 50 µg/mL,> 263 µM,> 263 µM,> 50 µg/mL,> 263 µM,> 50 µg/mL,
OB1OCC=C1c1ccccc1F [Compound 6d],> 50 µg/mL,> 281 µM,> 50 µg/mL,> 281 µM,> 50 µg/mL,> 281 µM,> 50 µg/mL,> 281 µM,25 µg/mL,140 µM,> 50 µg/mL,> 281 µM,21 ± 4 µg/mL,118 µM,> 281 µM,> 50 µg/mL,> 281 µM,> 50 µg/mL,
COc1cccc(C2=CCOB2O)c1 [Compound 6o],> 50 µg/mL,> 263 µM,> 50 µg/mL,> 263 µM,> 50 µg/mL,> 263 µM,> 50 µg/mL,> 263 µM,50 µg/mL,263 µM,> 50 µg/mL,> 263 µM,50 µg/mL,263 µM,> 263 µM,> 50 µg/mL,> 263 µM,> 50 µg/mL,
OB1OCC=C1c1ccccc1 [Compound 6a],> 50 µg/mL,> 313 µM,> 50 µg/mL,> 313 µM,> 50 µg/mL,> 313 µM,> 50 µg/mL,> 313 µM,50 µg/mL,313 µM,> 50 µg/mL,> 313 µM,6.25 µg/mL,39.1 µM,> 313 µM,> 50 µg/mL,313 µM,> 50 µg/mL,
"C[C@@H]1C[C@@H]([C@H](O)CC2CC(=O)NC(=O)C2)C(=O)[C@@H](C)C1 [Cycloheximide, reference compound]",> 50 µg/mL,> 178 µM,> 50 µg/mL,> 178 µM,> 50 µg/mL,> 178 µM,> 50 µg/mL,> 178 µM,12.5 µg/mL,44.4 µM,> 50 µg/mL,> 178 µM,1.56 µg/mL,5.54 µM,> 178 µM,> 50 µg/mL,> 178 µM,> 50 µg/mL,
OB1OCC=C1c1ccc(OC(F)(F)F)cc1 [Compound 6m],50 µg/mL,205 µM,> 50 µg/mL,> 205 µM,> 50 µg/mL,> 205 µM,50 µg/mL,205 µM,12.5 µg/mL,51.2 µM,> 50 µg/mL,> 205 µM,29 ± 11 µg/mL,119 µM,> 205 µM,> 50 µg/mL,> 205 µM,> 50 µg/mL,
"C[C@@H]1[C@H](O)[C@@H](C)/C=C/C=C/CC/C=C/C=C/C=C/C=C/C(O[C@H]2O[C@H](C)[C@@H](O)[C@H](N)[C@@H]2O)CC2O[C@](O)(CC(O)C(O)CCC(O)CC(O)CC(O)CC(=O)O[C@H]1C)CC(O)C2C(=O)O (some centres unmarked) [Nystatin, reference compound]",,,,,,,,,,,,,,,,,,,MIC TM [1]: 3.13 ± 0 µg/mL; MIC ([1]; value in parentheses): 3.38 µM; MIC PA [2]: > 50 µg/mL; MIC ([2]; value in parentheses): > 54.0 µM; MIC SA [3]: > 50 µg/mL; MIC ([3]; value in parentheses): > 54.0 µM; MIC AF [4]: 2.6 ± 0.5 µg/mL; MIC ([4]; value in parentheses): 2.81 µM; MIC PC [5]: 1.56 ± 0 µg/mL; MIC ([5]; value in parentheses): 1.68 µM; MIC CA [6]: 0.78 ± 0 µg/mL; MIC ([6]; value in parentheses): 0.84 µM; MIC SC [7]: 1.56 ± 0 µg/mL; MIC ([7]; value in parentheses): 1.68 µM; MIC EC [8]: > 50 µg/mL; MIC ([8]; value in parentheses): > 54.0 µM; MIC BC [9]: > 50 µg/mL; MIC ([9]; value in parentheses): > 54.0 µM
Cc1ccccc1C1=CCOB1O [Compound 6v],> 50 µg/mL,> 287 µM,> 50 µg/mL,> 287 µM,> 50 µg/mL,> 287 µM,> 50 µg/mL,> 287 µM,> 50 µg/mL,> 287 µM,> 50 µg/mL,> 287 µM,> 50 µg/mL,> 287 µM,> 287 µM,> 50 µg/mL,> 287 µM,> 50 µg/mL,
OB1OCC=C1c1cccc(I)c1 [Compound 6l],25 µg/mL,87.4 µM,> 50 µg/mL,> 175 µM,> 50 µg/mL,> 175 µM,25 µg/mL,87.4 µM,6.25 µg/mL,21.9 µM,> 50 µg/mL,> 175 µM,> 50 µg/mL,> 175 µM,> 175 µM,> 50 µg/mL,> 175 µM,> 50 µg/mL,
OB1OCC=C1c1cccc(F)c1 [Compound 6c],50 µg/mL,281 µM,> 50 µg/mL,> 281 µM,> 50 µg/mL,> 281 µM,50 µg/mL,281 µM,25 µg/mL,140 µM,> 50 µg/mL,> 281 µM,10.4 ± 2 µg/mL,58.4 µM,> 281 µM,> 50 µg/mL,> 281 µM,> 50 µg/mL,
OB1OCC=C1c1ccccc1Br [Compound 6j],> 50 µg/mL,> 210 µM,> 50 µg/mL,> 210 µM,> 50 µg/mL,> 210 µM,> 50 µg/mL,> 210 µM,> 50 µg/mL,> 210 µM,> 50 µg/mL,> 210 µM,> 50 µg/mL,> 210 µM,> 210 µM,> 50 µg/mL,> 210 µM,> 50 µg/mL,
